Measured values from patent EP2261259B1, “Immunoassay for N-(3-chlorophenyl)piperazine-based anti-depressants” (Randox Laboratories Ltd., priority 2009, dated 2010).
Values after ≈ are worked out from the molar mass of the structure shown.

Tested on: antibody of the invention
Experiment: Competitive ELISA (antibody-coated microtitre plate, hapten-HRP conjugate, TMB, absorbance at 450 nm)
Type: binding, sheep
Settings: for %CR: percentage cross-reactivity based on 100% specificity to nefazodone; for %B/B0: B0 = absorbance at 0 ng/ml; for A450: absorbance at 450 nm; for IC50: standard concentration which produces 50% B/B0
Protocol: The process of developing an immunoassay is well known to the person skilled in the art. […] The serum from the immunised animal is collected when the antibody titre is sufficiently high. A conjugate is added to a sample containing the target analyte and the raised antibodies, and the conjugate and analyte compete for binding to the antibodies. The process may comprise fixing said serum antibodies to a backing substrate such as a polystyrene solid support or a biochip. The antibodies can be polyclonal or monoclonal. The signal emitted in the immunoassay is proportionate to the amount of conjugate bound to the antibodies which in turn is inversely proportionate to the analyte concentration. The signal can be detected or quantified by comparison with a calibrator.
The resulting immunogens were administered separately to adult sheep on a monthly basis to provide target-specific polyclonal antisera. IgG was extracted from the antisera via Caprylic acid/ammonium sulphate precipitation of immunoglobulin. Microtitre plates (Thermo Scientific, 95029180) were coated with antibody (125µl) in coating buffer (10mM Tris pH 8.5) at 37°C for 2 hours. Antibody was coated at 2.5µg/ml. The plates were then washed. […] The plates were then washed and 125µl of TMB (Randox, 4380-15) was added to each well and left at room temperature for 20mins in the dark. The reaction was stopped using 125µl of 0.2M sulphuric acid. The absorbancies were read at 450nm with an ELISA microplate reader (BIO-TEK Instruments, EL340) and the means calculated. Antibody specificity and sensitivity were then determined

[1] = standard concentration 0.156 ng/ml
[2] = standard concentration 0.313 ng/ml
[3] = standard concentration 0.625 ng/ml
[4] = standard concentration 1.250 ng/ml
[5] = standard concentration 2.500 ng/ml
[6] = standard concentration 5.000 ng/ml
[7] = standard concentration 10.000 ng/ml

With `CCc1nn(CCCN2CCN(c3cccc(Cl)c3)CC2)c(=O)n1CCOc1ccccc1` [Nefazodone, 2-{3-[4-(3-chlorophenyl)-1-piperazinyl]propyl}-5-ethyl-4-(2-phenoxyethyl)-1,2,4-triazol-3-one] the “%CR” value was 100%, the “%B/B0” value [1] was 91% and the A450 [1] was 1.850. For the same compound, the “%B/B0” value [2] was 83%, the A450 [2] was 1.671 and the “%B/B0” value [3] was 73%. For the same compound, the A450 [3] was 1.467, the “%B/B0” value [4] was 58% and the A450 [4] was 1.168. The “%B/B0” value [5] was 46%, the A450 [5] was 0.923 and the “%B/B0” value [6] was 34%. For the same compound, the A450 [6] was 0.683, the “%B/B0” value [7] was 24% and the A450 [7] was 0.494. For the same compound, the IC50 was 3.901 ng/mL (≈ 0.0083 µM).

`O=c1n(CCCN2CCN(c3cccc(Cl)c3)CC2)nc2ccccn12` [Trazodone, 2-{3-[4-(3-chlorophenyl)-1-piperazinyl]propyl}-[1,2,4]triazolo[4,3-a]pyridin-3(2H)-one] was tested, and the “%CR” value was 733%, the “%B/B0” value [1] was 67% and the A450 [1] was 1.456. For the same compound, the “%B/B0” value [2] was 58%, the A450 [2] was 1.271 and the “%B/B0” value [3] was 48%. For the same compound, the A450 [3] was 1.041, the “%B/B0” value [4] was 35% and the A450 [4] was 0.763. For the same compound, the “%B/B0” value [5] was 25%, the A450 [5] was 0.551 and the “%B/B0” value [6] was 18%. The A450 [6] was 0.398, the “%B/B0” value [7] was 13% and the A450 [7] was 0.287.

`Clc1cccc(N2CCNCC2)c1` [mCPP, N-(3-chlorophenyl)piperazine] was tested, and the “%CR” value was 46%, the “%B/B0” value [1] was 85% and the A450 [1] was 1.821. For the same compound, the “%B/B0” value [2] was 79%, the A450 [2] was 1.679 and the “%B/B0” value [3] was 72%. The A450 [3] was 1.534, the “%B/B0” value [4] was 65% and the A450 [4] was 1.380. The “%B/B0” value [5] was 55%, the A450 [5] was 1.183 and the “%B/B0” value [6] was 48%. The A450 [6] was 1.027, the “%B/B0” value [7] was 42% and the A450 [7] was 0.888. It also gave an IC50 of 8.476 ng/mL (≈ 0.0431 µM).
